Values quoted from earlier work as cited in US6043366A (priority 1997, dated 2000).

Key:
LC 132 receptor = conditions: cells in culture

OFQ: seventeen amino-acid-long peptide (F-G-G-F-T-G-A-R-K-S-A-R-K-L-A-N-Q), isolated from rat brain, natural ligand to the G-protein coupled receptor OFQ-R (FGGFTGARKSARKLANQ; Nociceptin; UniProt Q13519 130-146, looked up)
adenylate cyclase in CHO(LC 132+) cells (LC 132 receptor): inhibits adenylate cyclase | hyperalgesia (mice; administered intra-cerebroventricularly to mice): induces hyperalgesia | locomotive activity (mice; injected intra-cerebroventricularly in mice): slowed down locomotive activity
